The source of these data is patent US20040072767A1, “Glucopyranose derivatives and medicaments for preventing and/or treating HIV infection diseases comprising the same as an active ingredient” (ONO PHARMACEUTICAL CO., LTD., priority 1998, published 2004).

This assay addresses T1, CXCR4 (Homo sapiens, UniProt P61073).
T1 construct: host or cells: CCRF-HSB2 human T cells
Kind of assay: Inhibition experiment against induction activity of SDF-1 on transitory increase of Ca ion. It is filed as cell-based. Conditions: test compound 10 μM, SDF-1β 30 nM added 3 minutes after compound, CCRF-HSB2 human T cells loaded with Fura-2AM; for inhibition at 10 µM: CCRF-HSB-2, read-out: Inhibition rate (%). From the text:
As described above, for screening a compound inhibiting the binding of HIV to CXCR4 which is a receptor on T cell, it is a more direct procedure to carry out the screening in an assay system using HIV virus. However, use of HIV virus on a large scale screening is not practical owing to its difficulty of handling. On the other hand, since HIV and SDF-1 are both bound to CXCR4, it is expectable that there are some common characteristics between the CXCR4 binding sites of both HIV and SDF-1 sides and the SDF-1 and HIV binding sites of CXCR4 side. Therefore, in order to find out a compound inhibiting the adsorption of HIV virus to a cell, i.e., having an activity mechanism different from the existing anti-AIDS medicaments (inhibitors of reverse transcription and inhibitors of proteases), it is possible to utilize an assay system using SDF-1 which is an original ligand for CXCR4, instead of HIV. More particularly, as an example of the screening system of a compound inhibiting the binding of SDF-1 to CXCR4, a system of measuring an effect on transitory increase of Ca ion induced by SDF-1 through CXCR4 is practicable since CXCR4 is a G protein-conjugated seven-times transmembrane-type receptor.
A human T cell expressing CXCR4, for example cells of CCRF-HSB2 (ATCC No. CCL-120.1) were suspended into RPMI-1640 medium, fetal bovine serum (FBS) (10%), Fura-2AM (5 μM) (Dojin Kagaku, cat# 343-05401), Probenecid (2.5 mM), and a HEPES buffer (20 mM, pH 7.4) so as to be 5×10^6 cell/ml, and the suspension was heated at 37° C. for 30 minutes under a light-shielded condition. Then, a 4 to 8 fold-diluted Hanks solution (1× Hanks), HEPES (20 mM, pH 7.4) and Probenecid (2.5 mM) were added thereto, and the whole was heated for another 30 minutes. After the cells were washed with a solution of 1× Hanks, HEPES (20 mM, pH 7.4) and Probenecid (2.5 mM), they were re-suspended into the solution so as to be 2×10^6 cell/ml. For the T cell on which Fura-2AM had been loaded, the transitory increase of Ca induced by the addition of recombinant SDF-1β dissolved in PBS(−) was detected by use of a suitable Ca detector. In the inhibition experiment, the inhibitory effect of a test compound (10 μM) on the transitory increase of Ca induced by the addition of recombinant SDF-1β were measured by adding SDF-1β at an amount so as to be final concentration of, for example, 30 nM at 3 minutes after the addition of the test compound. An inhibition rate (%) was calculated according to the following equation.
Inhibition rate=(Ec−Ea)/Ec×100
In the equation, each symbol means as follows: […]
Ec: measured value of the transitory increase of Ca induced by SDF-1β
Ea: measured value of the transitory increase of Ca induced by SDF-1β when a test compound was added.

T1 sequence (P61073 whole entry): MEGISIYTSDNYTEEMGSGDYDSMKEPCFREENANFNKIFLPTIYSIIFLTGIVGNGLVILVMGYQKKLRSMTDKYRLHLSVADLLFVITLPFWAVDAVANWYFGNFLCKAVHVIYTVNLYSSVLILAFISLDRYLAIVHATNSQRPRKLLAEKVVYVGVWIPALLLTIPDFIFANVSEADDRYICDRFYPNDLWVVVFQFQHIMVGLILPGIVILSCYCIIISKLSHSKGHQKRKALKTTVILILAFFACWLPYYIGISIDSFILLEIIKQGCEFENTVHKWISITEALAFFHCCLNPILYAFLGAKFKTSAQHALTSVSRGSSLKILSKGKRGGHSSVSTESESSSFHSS

Regarding `CCCCCCCCCCC[C@@H](CC(=O)N[C@H]1C(O)O[C@H](CO)[C@@H](OS(=O)(=O)[O-])[C@@H]1OC(=O)CCCCCCCCc1ccccc1)OC(=O)CCCCCCCCc1ccccc1.[Na+]` (stereo partly drawn) [Compound (1), 2-Deoxy-2-[3S-(9-phenylnonanoyloxy)tetradecanoyl]amino-3-O-(9-phenylnonanoyl)-4-O-sulfo-D-glucopyranose sodium salt], the “Inhibition rate (%)” value is recorded as 93%. For `O=C(C[C@H](CCCCCCc1ccccc1)OC(=O)CCCCCCCCc1ccccc1)N[C@H]1C(O)O[C@H](CO)[C@@H](OS(=O)(=O)O)[C@@H]1OC(=O)CCCCCCCCc1ccccc1` (stereo partly drawn) [Compound (2), 2-deoxy-2-[3S-(9-phenylnonanoyloxy)-9-phenylnonanoyl]amino-3-O-(9-phenylnonanoyl)-4-O-sulfo-D-glucopyranose], the “Inhibition rate (%)” value was found to be 96%. With `CCCCCCCCCCC[C@@H](CC(=O)N[C@H]1C(O)O[C@H](CO)[C@@H](OS(=O)(=O)O)[C@@H]1OC(=O)CCCCCCCc1ccc(OC)cc1)OC(=O)CCCCCCCc1ccc(OC)cc1` (stereo partly drawn) [Compound (3)], the “Inhibition rate (%)” value worked out at 97%. In the case of `CCCCCCCCCCC[C@@H](CC(=O)N[C@H]1C(O)O[C@H](CO)[C@@H](OS(=O)(=O)O)[C@@H]1OC(=O)CCCCCCCCc1ccc(Cl)cc1)OC(=O)CCCCCCCCc1ccc(Cl)cc1` (stereo partly drawn) [Compound (4)], the “Inhibition rate (%)” value is given as 96%. As for `CCCCCCCCCCC[C@@H](CC(=O)N[C@H]1C(O)O[C@H](CO)[C@@H](OS(=O)(=O)O)[C@@H]1OC(=O)CCCCc1ccc(CCCCC)cc1)OC(=O)CCCCc1ccc(CCCCC)cc1` (stereo partly drawn) [Compound (5), 2-deoxy-2-[3S-[5-(4-pentylphenyl)pentanoyloxy]tetradecanoyl]amino-3-O-[5-(4-pentylphenyl)pentanoyl]4-O-sulfo-D-glucopyranose], the “Inhibition rate (%)” value was 97%. The same measure, in the same setting: under `O=C(CCCCCCCCc1ccc2ccccc2c1)N[C@H]1C(O)O[C@H](CO)[C@@H](OS(=O)(=O)O)[C@@H]1OC(=O)CCCCCCCCc1ccc2ccccc2c1` (stereo partly drawn) [Compound (6), 2-deoxy-2-[9-(2-naphthyl)nonanoyl]amino-3-O-[9-(2-naphthyl)nonanoyl]-40-sulfo-D-glucopyranose] stands 97%; under `CCCCCCCCCCC[C@@H](CC(=O)N[C@H]1C(O)O[C@H](CO)[C@@H](OS(=O)(=O)O)[C@@H]1OC(=O)CCCCCCCOc1cc(Cl)cc(Cl)c1)OC(=O)CCCCCCCOc1cc(Cl)cc(Cl)c1` (stereo partly drawn) [Compound (7), 2-deoxy-2-[3S-[8-(3,5-dichlorophenoxy)octanoyloxy]tetradecanoyl]amino-3-O-[8-(3,5-dichlorophenoxy)octanoyl]-4-O-sulfo-D-glucopyranose], 95%; under `CCCCCCCCCCCC(CC(=O)N[C@H]1COC[C@@H](OS(=O)(=O)O)[C@@H]1OC(=O)CCCCCCCCc1ccccc1)OC(=O)CCCCCCCCc1ccccc1` (stereo partly drawn) [Compound (8), 2-deoxy-2-[3RS-(9-phenylnonanoyloxy)tetradecanoyl]amino-3-O-(9-phenylnonanoyl)-4-O-sulfo-1,5-anhydro-D-xylitol], 94%. In the case of `CCCCCCCCCCCCCC(=O)O[C@H]1[C@H](OS(=O)(=O)O)[C@@H](CO)OC(O)[C@@H]1NC(=O)c1ccc(OCCCCCCCCCC)c(OCCCCCCCCCC)c1` (stereo partly drawn) [Compound (9)], the “Inhibition rate (%)” value is reported as 93%. Regarding `CCCCCCCCCCCCCC(=O)O[C@@H]1[C@@H](NC(=O)c2ccc(OCCCCCCCCCC)c(OCCCCCCCCCC)c2)[C@@H](OC)O[C@H](CO)[C@H]1OS(=O)(=O)O` [Compound (10), methyl 2-deoxy-2-(3,4-didecyloxybenzoyl) amino-3-O-tetradecanoyl-4-O-sulfo-α-D-glucopyranoside], the “Inhibition rate (%)” value was 91%. Turning to `CCCCCCCCCCC[C@@H](CC(=O)N[C@H]1CO[C@H](C)[C@@H](OS(=O)(=O)O)[C@@H]1OC(=O)CCCCCCCCc1ccccc1)OC(=O)CCCCCCCCc1ccccc1` [Compound (12), 2,6-deoxy-2-[3S-(9-phenylnonanoyloxy)tetradecanoyl]amino-3-O-(9-phenylnonanoyl)-4-O-sulfo-1,5-anhydro-D-glucitol], the “Inhibition rate (%)” value is 94%. Same read-out and setting: the value for `CCCCCCCCCCCC(CC(=O)NC1CCCC(OS(=O)(=O)O)C1OC(=O)CCCCCCCCc1ccccc1)OC(=O)CCCCCCCCc1ccccc1` (stereo not drawn) [Compound (13), 3(syn)-[3RS-(9-phenylnonanoyloxy)tetradecanoyl]amino-2RS (anti)-(9-phenylnonanoyloxy)cyclohexa-1RS-yl-O-sulfonic acid] was 86%; that for `CCCCCCCCCCC[C@@H](CC(=O)N[C@H]1C(O)O[C@H](CO)[C@@H](OS(=O)(=O)[O-])[C@@H]1OC(=O)CCCCCCCCc1ccccc1)OC(=O)CCc1ccccc1.[Na+]` (stereo partly drawn) [Compound (14), 2-Deoxy-2-[3S-[3-phenylpropanoyloxy]tetradecanoyl]amino-3-O-[9-phenylnonanoyl]4-O-sulfo-D-glucopyranose sodium salt] was 96%. `CCCCCCCCCCC[C@@H](CC(=O)N[C@H]1C(O)O[C@H](CO)[C@@H](OS(=O)(=O)[O-])[C@@H]1OC(=O)CCc1ccccc1)OC(=O)CCCCCCCCc1ccccc1.[Na+]` (stereo partly drawn) [Compound (15), 2-Deoxy-2-[3S-[9-phenylnonanoyloxy]tetradecanoyl]amino-3-O-[3-phenylpropanoyl]-4-O-sulfo-D-glucopyranose sodium salt]: the “Inhibition rate (%)” value was found to be 93%. In the case of `CCCCCCCCC[C@@H](CC(=O)N[C@H]1C(O)O[C@H](CO)[C@@H](OS(=O)(=O)[O-])[C@@H]1OC(=O)CCCCCCCCc1ccccc1)OC(=O)CCCCCCCCc1ccccc1.[Na+]` (stereo partly drawn) [Compound (16), 2-Deoxy-2-[3S-[9-phenylnonanoyloxy]dodecanoyl]amino-3-O-[9-phenylnonanoyl]4-O-sulfo-D-glucopyranose sodium salt], the “Inhibition rate (%)” value stood at 92%.

Take `CCCCCCCCCCCCC[C@@H](CC(=O)N[C@H]1C(O)O[C@H](CO)[C@@H](OS(=O)(=O)[O-])[C@@H]1OC(=O)CCCCCCCCc1ccccc1)OC(=O)CCCCCCCCc1ccccc1.[Na+]` (stereo partly drawn) [Compound (17), 2-Deoxy-2-[3S-[9-phenylnonanoyloxy]hexadecanoyl]amino-3-O-[9-phenylnonanoyl]4-O-sulfo-D-glucopyranose sodium salt]: the “Inhibition rate (%)” value amounted to 93%. With `CCCCCCCCCCC[C@H](CC(=O)N[C@H]1C(O)O[C@H](CO)[C@@H](OS(=O)(=O)[O-])[C@@H]1OC(=O)CCCCCCCCc1ccccc1)OC(=O)CCCCCCCCc1ccccc1.[Na+]` (stereo partly drawn) [Compound (18), 2-Deoxy-2-R[3-[9-phenylnonanoyloxy]tetradecanoyl]amino-3-O-[9-phenylnonanoyl]4-O-sulfo-D-glucopyranose sodium salt], the “Inhibition rate (%)” value turned out to be 91%.

One may read the inhibition as the drop in the measured response relative to a control, in per cent. Regarding `CCCCCCCCCCC[C@H](CC(=O)N[C@H]1C(O)O[C@H](CO)[C@@H](OS(=O)(=O)O)[C@@H]1OC(=O)CCCCC)OC(=O)CCCCC` (stereo partly drawn) [Example 2 (3), 2-deoxy-2-[3R-(hexanoyloxy)tetradecanoyl]amino-3-O-hexanoyl-4-O-sulfo-D-glucopyranose], the inhibition at 10 µM was determined as 79%. Take `CCCCCCCCCCC[C@H](CC(=O)N[C@H]1C(O)O[C@H](CO)[C@@H](OS(=O)(=O)O)[C@@H]1OC(=O)CCCCCCCCC)OC(=O)CCCCCCCCC` (stereo partly drawn) [Example 2 (4), 2-deoxy-2-[3R-(decanoyloxy)tetradecanoyl]amino-3-O-decanoyl-4-O-sulfo-D-glucopyranose]: the inhibition at 10 µM amounted to 94%. In the case of `CCCCCCCCCCCC(=O)O[C@H](CCCCCCCCCCC)CC(=O)N[C@H]1C(O)O[C@H](CO)[C@@H](OS(=O)(=O)O)[C@@H]1OC(=O)CCCCCCCCCCC` (stereo partly drawn) [Example 2 (5), 2-deoxy-2-[3R-(dodecanoyloxy)tetradecanoyl]amino-3-O-dodecanoyl-4-O-sulfo-D-glucopyranose], the inhibition at 10 µM came to 99%.

On to `CCCCCCCCCCCCCC(=O)O[C@@H](CCCCCCCCCCC)CC(=O)N[C@H]1C(O)O[C@H](C)[C@@H](OS(=O)(=O)O)[C@@H]1OC(=O)CCCCCCCCCCCCC` (stereo partly drawn) [Example 4, 2,6-deoxy-2-[3S-(tetradecanoyloxy)tetradecanoyl]amino-3-O-tetradecanoyl-4-O-sulfo-D-glucopyranose], for which the “Inhibition rate (%)” value is 92%.
